How the values were obtained:
[1] = tested on: RSV respiratory tract virus (A long strain); experiment: RSV long CPE assay (cytopathic effect assay), EC50; assay type: cell-based; details: human respiratory syncytial virus, HEp-2, 120 h; Hep2 cells infected with RSV A long strain, 5 days, CCK-8 readout
Method: (§1) Detect EC50 and CC50 values of anti RSV respiratory tract virus compounds through the cytopathic effect assay.
Virus strain: RSV respiratory tract virus (A long strain)
(§2) The cell plate was centrifugated (300 rpm) to make the cells adherent to the wall, placed into a 37° C., 5% CO2 incubator overnight.
(§3) 1) the compound in 100% DMSO underwent a semi logarithmic dilution, then was added to the cell plate with a Echo liquid handler. Ensure that the final concentration of DMSO was 1%;
(§4) 2) Cell-control hole: no compound and viruse were added; virus-control hole: no compound was added.
dilute RSV viruses to 100 TCID50/30 μL with medium cultured with 4° C. cells, and then add the diluted viruses to a cell plate (30 μL/hole) with Multidrop® automatic liquid distributor, and then placed into a 37° C., 5% CO2 culture incubator for 5 days.
1) after 5 days, observe the pathological change in each hole.
(§5) 2) add CCK-8 (Dojindo-CK04-20, 6 μL/hole) to 384 well plate with Multidrop® automatic liquid distributor;
(§6) 3) place the plate at a 37° C., 5% CO2 culture incubator for 3˜4 h, read the absorbance value with SPECTRA max 340PC_Molecular device at 450 nm and 630 nm;

[2] = RSV long CPE assay (cytopathic effect assay), CC50 toxicity in vitro; assay type: cell-based; details: human, Hep2 cells, CCK-8 readout, top concentration 100 μM
Method: as §1, §2, §3, §4, §5, §6

Row | SMILES | EC50 [1] [nM] | CC50 at 5 days [2] [µM]
1 | O=C(C(F)F)N1CC2(C1)C(=O)N(Cc1nc3c(n1CCCC(F)(F)F)CCCC3)c1ccccc12 [Embodiment 96, 1-(2,2-Difluoroacetyl)-1′-((1-(4,4,4-trifluorobutyl)-4,5,6,7-tetrahydro-1H-benzo[d]imidazol-2-yl)methyl)spiro[azetidine-3,3′-indoline]-2′-one] | < 100 | > 100
2 | CS(=O)(=O)N1CC2(C1)C(=O)N(Cc1nc3c(n1CCCC(F)(F)F)CCCC3)c1ccccc12 [Embodiment 97, 1-(Methylsulfonyl)-1′-((1-(4,4,4-trifluorobutyl)-4,5,6,7-tetrahydro-1H-benzo[d]imidazol-2-yl)methyl)spiro[azetidine-3,3′-indoline]-2′-one] | < 100 | > 100
3 | O=C1N(Cc2nc3c(n2CCCC(F)(F)F)CCCC3)c2ccccc2C12CN(S(=O)(=O)C1CC1)C2 [Embodiment 98, 1-(Cyclopropylsulfonyl)-1′-((1-(4,4,4-trifluorobutyl)-4,5,6,7-tetrahydro-1H-benzo[d]imidazol-2-yl)methyl)spiro[azetidine-3,3′-indoline]-2′-one] | < 100 | > 100
4 | CC(C)S(=O)(=O)N1CC2(C1)C(=O)N(Cc1nc3c(n1CCCC(F)(F)F)CCCC3)c1ccccc12 [Embodiment 99, 1-(Isopropylsulfonyl)-1′-((1-(4,4,4-trifluorobutyl)-4,5,6,7-tetrahydro-1H-benzo[d]imidazol-2-yl)methyl)spiro[azetidine-3,3′-indoline]-2′-one] | < 100 | > 100
5 | Cc1nc(CN2C(=O)C3(CN(C(=O)OC(C)C)C3)c3ccccc32)n(CCCCO)c1C [Embodiment 100, Isopropyl 1′-((1-(4-hydroxybutyl)-4,5-dimethyl-1H-imidazol-2-yl)methyl)-2′-oxospiro[azetidine-3,3′-indoline]-1-carboxylate] | < 100 | > 100
6 | CC(C)OC(=O)N1CC2(C1)C(=O)N(Cc1nc3c(n1CCCC(F)(F)F)CCC3)c1ccccc12 [Embodiment 102, Isopropyl 2′-oxo-1′-((1-(4,4,4-trifluorobutyl)-1,4,5,6-tetrahydrocyclopenta[d]imidazol-2-yl)methyl)spiro[azetidine-3,3′-indoline]-1-carboxylate] | < 100 | > 100
7 | CC(C)OC(=O)N1CC2(C1)C(=O)N(Cc1nc3c(n1CCCCO)CCC3)c1ccccc12 [Embodiment 103, Isopropyl 1′-((1-(4-hydroxybutyl)-1,4,5,6-tetrahydrocyclopenta[d]imidazol-2-yl)methyl)-2′-oxospiro[azetidine-3,3′-indoline]-1-carboxylate] | < 100 | > 100
8 | CCOC(=O)N1CC2(C1)C(=O)N(Cc1nc3c(n1CCCC(F)(F)F)CCC3)c1ccccc12 [Embodiment 104, Ethyl 2′-oxo-1′-((1-(4,4,4-trifluorobutyl)-1,4,5,6-tetrahydrocyclopenta[d]imidazol-2-yl)methyl)spiro[azetidine-3,3′-indoline]-1-carboxylate] | < 100 | > 100
9 | CC(C)C(=O)N1CC2(C1)C(=O)N(Cc1nc3c(n1CCCC(F)(F)F)CCC3)c1ccccc12 [Embodiment 105, 1-Isobutyryl-1′-((1-(4,4,4-trifluorobutyl)-1,4,5,6-tetrahydrocyclopenta[d]imidazol-2-yl)methyl)spiro[azetidine-3,3′-indoline]-2′-one] | < 100 | > 100
10 | CS(=O)(=O)N1CC2(C1)C(=O)N(Cc1nc3c(n1CCCC(F)(F)F)CCC3)c1ccccc12 [Embodiment 106, 1-(Methylsulfonyl)-1′-((1-(4,4,4-trifluorobutyl)-1,4,5,6-tetrahydrocyclopenta[d]imidazol-2-yl)methyl)spiro[azetidine-3,3′-indoline]-2′-one] | < 100 | > 100
11 | C=CCCn1c(CN2C(=O)C3(CN(C(=O)OC(C)C)C3)c3ccc(Cl)cc32)nc2c1CCCC2 [Embodiment 107, Isopropyl 1′-((1-(but-3-en-1-yl)-4,5,6,7-tetrahydro-1H-benzo[d]imidazol-2-yl)methyl)-6′-chloro-2′-oxospiro[azetidine-3,3′-indoline]-1-carboxylate] | < 100 | > 100
12 | CC(C)OC(=O)N1CC2(C1)C(=O)N(Cc1nc3c(n1CCCC(F)(F)F)C(=O)CCC3)c1ccccc12 [Embodiment 108, Isopropyl 2′-oxo-1′-((7-oxo-1-(4,4,4-trifluorobutyl)-4,5,6,7-tetrahydro-1H-benzo[d]imidazol-2-yl)methyl)spiro[azetidine-3,3′-indoline]-1-carboxylate] | 100 to 1000 | > 100
13 | CC(C)OC(=O)N1CC2(C1)C(=O)N(Cc1nc3c(n1CCCC(F)(F)F)C(O)CCC3)c1ccccc12 (stereo not shown) [Embodiment 109, Isopropyl 1′-((7-hydroxy-1-(4,4,4-trifluorobutyl)-4,5,6,7-tetrahydro-1H-benzo[d]imidazol-2-yl)methyl)-2′-oxospiro[azetidine-3,3′-indoline]-1-carboxylate] | 100 to 1000 | > 100
14 | CCOC(=O)N1CC2(C1)C(=O)N(Cc1nc3c(n1CCCC(F)(F)F)CCCC3C)c1ccccc12 (stereo not shown) [Embodiment 110, Ethyl 1′-((4-methyl-1-(4,4,4-trifluorobutyl)-4,5,6,7-tetrahydro-1H-benzo[d]imidazol-2-yl)methyl)-2′-oxospiro[azetidine-3,3′-indoline]-1-carboxylate] | 100 to 1000 | > 100

Reference: patent publication US9850251B2, “Imidazole derivative used as antiviral agent and use therof in preparation of medicament” (priority 2013, dated 2017)
